Earlier results in patent US20110052683A1, “PHARMACEUTICAL PREPARATION FOR TREATING CARDIOVASCULAR DISEASE” (priority 2008, published 2011).

Key:
[1] = combined administration of atorvastatin with diltiazem
[2] = combined administration of lovastatin with diltiazem
[3] = combined administration of pravastatin with verapamil

CC(C)c1c(C(=O)Nc2ccccc2)c(-c2ccccc2)c(-c2ccc(F)cc2)n1CC[C@@H](O)C[C@@H](O)CC(=O)O [atorvastatin]
side effects of combined administration [1]: occurrence of rhabdomyolysis and acute hepatitis

CC[C@H](C)C(=O)O[C@H]1C[C@@H](C)C=C2C=C[C@H](C)[C@H](CC[C@@H]3C[C@@H](O)CC(=O)O3)[C@H]21 [lovastatin]
change in Cmax and AUC [2]: sudden increase in Cmax and AUC

CC[C@H](C)C(=O)O[C@H]1C[C@H](O)C=C2C=C[C@H](C)[C@H](CC[C@@H](O)C[C@@H](O)CC(=O)O)[C@H]21 [pravastatin]
increase in AUC [3]: 31% | increase in Cmax [3]: 42%
